Patent EP0060077A1, “Beta-lactam antibiotics, their preparation and use” (BEECHAM GROUP PLC, priority 1981, dated 1982)
Like-named read-outs stand apart in the source and are kept apart here.

Legend:
P. rettgeri Wm16 = assay: MIC (Broth); assay type: cell-based; conditions: Providencia rettgeri
Source text: (§1) MIC DATA (Broth) For sodium (5RS,6RS)-3-[(Z)-2-carba- moylethenylthio)-4,4-dimethyl-6-[(1SR)-1-hydroxyethyl]-7-oxo-l-azabicyclo[3.2.0]hept-2-en-2-carboxylate (32)
(§2) MIC DATA (Broth) for sodium (5RS,6RS)-4,4-dimethyl-6- [(1SR)-1-hydroxyethyl]-3-(pyrimidin-2-ylsulphinyl)-7-oxo-1-azabicyclo[3.2.0]hept-2-ene-Z-carboxylate (27)

S. aureus Oxford = assay: MIC (Broth); assay type: cell-based; conditions: Staphylococcus aureus
Source text: as §1, §2

S. typhimurium CT10 = assay: MIC (Broth); assay type: cell-based; conditions: Salmonella enterica
Source text: as §1, §2

P. mirabilis 977 = assay: MIC (Broth); assay type: cell-based; conditions: Proteus mirabilis
Source text: as §1, §2

S. aureus 1517 = assay: MIC (Broth); assay type: cell-based; conditions: Staphylococcus aureus
Source text: as §1, §2

E. coli ESS = assay: MIC (Broth); assay type: cell-based; conditions: Escherichia coli
Source text: as §1, §2

C. freundii E8 = assay: MIC (Broth); assay type: cell-based; conditions: Citrobacter freundii
Source text: as §1, §2

B. subtilis A = assay: MIC (Broth); assay type: cell-based; conditions: Bacillus subtilis
Source text: as §1, §2

K. aerogenes A = assay: MIC (Broth); assay type: cell-based; conditions: Klebsiella aerogenes
Source text: as §1, §2

P. morganii 1580 = assay: MIC (Broth); assay type: cell-based; conditions: Morganella morganii
Source text: as §1, §2

S. aureus Russell = assay: MIC (Broth); assay type: cell-based; conditions: Staphylococcus aureus
Source text: as §1, §2

S. sonnei MB11 1967 = assay: MIC (Broth); assay type: cell-based; conditions: Shigella sonnei, MB111967
Source text: as §1, §2

P. vulgaris W091 = assay: MIC (Broth); assay type: cell-based; conditions: Proteus vulgaris
Source text: as §1, §2

E. coli E96 = assay: MIC (Broth); assay type: cell-based; conditions: Escherichia coli
Source text: as §1

E. coli 0111 = assay: MIC (Broth); assay type: cell-based; conditions: Escherichia coli
Source text: as §1

K. aerogenes Ba95 = assay: MIC (Broth); assay type: cell-based; conditions: Klebsiella aerogenes
Source text: as §1

S. pneumoniae CN 33 = assay: MIC (Broth); assay type: cell-based; conditions: Streptococcus pneumoniae, CN33
Source text: as §1

E. cloacae N1 = assay: MIC (Broth); assay type: cell-based; conditions: Enterobacter cloacae
Source text: as §1

E. coli E8 = assay: MIC (Broth); assay type: cell-based; conditions: Escherichia coli
Source text: as §1

S. pyogenes CN10 = assay: MIC (Broth); assay type: cell-based; conditions: Streptococcus pyogenes
Source text: as §1

E. cloacae T753 = assay: MIC (Broth); assay type: cell-based; conditions: Enterobacter cloacae
Source text: as §1

E. coli JT39 = assay: MIC (Broth); assay type: cell-based; conditions: Escherichia coli
Source text: as §1

K. aerogenes T767 = assay: MIC (Broth); assay type: cell-based; conditions: Klebsiella aerogenes
Source text: as §1

S. aureus MB9 = assay: MIC (Broth); assay type: cell-based; conditions: Staphylococcus aureus
Source text: as §1

[1] = Tissue stability in mouse kidney homogenate; assay type: in vitro ADME; conditions: 2% mouse kidney homogenate mixed with equal volume of 200 µg/ml antibiotic, 37°C, HPLC; relative to MM13902 as standard (1.0)
Procedure: (§3) A preparation of 2% mouse kidney homogenate was mixed with equal volumes of a 200 µg/ml solution of the antibiotic to be tested. The stability of the antibiotic at 37°C was studied by removal of aliquots and subjecting them to high pressure liquid chromatographic analysis. The values are given in figures relative to that obtained for MM13902 which is taken as a standard (1.0). Values greater than 1.0 reflect the fold increase in stability relative to MM13902.

[2] = Tissue stability in human kidney homogenate (comparable test); assay type: in vitro ADME; conditions: relative to MM13902 as standard (1.0)
Procedure: as §3

E. coli 0111 [E8] = assay: MIC (Broth); assay type: cell-based; conditions: Escherichia coli
Source text: as §2

E. coli JT410 C4 = assay: MIC (Broth); assay type: cell-based; conditions: Escherichia coli, JT410C4
Source text: as §2

E. coli JT39 [E96] = assay: MIC (Broth); assay type: cell-based; conditions: Escherichia coli
Source text: as §2

K. aeogenes BA 9J R+ = assay: MIC (Broth); assay type: cell-based
Source text: as §2

Serratia marcescens US32 = assay: MIC (Broth); assay type: cell-based
Source text: as §2

E. coli JT 2074 = assay: MIC (Broth); assay type: cell-based; conditions: Escherichia coli, JT2074
Source text: as §2

E. cloacae N1 [T753] = assay: MIC (Broth); assay type: cell-based; conditions: Enterobacter cloacae
Source text: as §2

## C[C@H](O)[C@@H]1C(=O)N2C(C(=O)[O-])=C(S/C=C\C(N)=O)C(C)(C)[C@@H]12.[Na+] (racemic)
P. rettgeri Wm16; WM16
  MIC: 25 µg/mL
S. aureus Oxford
  MIC: 6.2 µg/mL
S. typhimurium CT10; TYPHIMURIUM
  MIC: 50 µg/mL
P. mirabilis 977; 977
  MIC: 25 µg/mL
S. aureus 1517; 1517
  MIC: 25 µg/mL
E. coli ESS
  MIC: 3.1 µg/mL
C. freundii E8; E8
  MIC: 25 µg/mL
B. subtilis A
  MIC: 1.6 µg/mL
K. aerogenes A
  MIC: 6.2 µg/mL
P. morganii 1580; 1580
  MIC: 25 µg/mL
S. aureus Russell
  MIC: 3.1 µg/mL
S. sonnei MB11 1967
  MIC: 25 µg/mL
P. vulgaris W091; W091
  MIC: 25 µg/mL
E. coli E96
  MIC: 50 µg/mL
E. coli 0111
  MIC: 50 µg/mL
K. aerogenes Ba95
  MIC: 50 µg/mL
S. pneumoniae CN 33
  MIC: 50 µg/mL
E. cloacae N1
  MIC: 25 µg/mL
E. coli E8
  MIC: 50 µg/mL
S. pyogenes CN10
  MIC: 6.2 µg/mL
E. cloacae T753
  MIC: 100 µg/mL
E. coli JT39
  MIC: 12.5 µg/mL
K. aerogenes T767
  MIC: 50 µg/mL
S. aureus MB9
  MIC: 25 µg/mL
[1]
  Relative Stability: 10.8
[2]
  Relative Stability: 6.9

## C[C@H](O)[C@@H]1C(=O)N2C(C(=O)[O-])=C([S+]([O-])c3ncccn3)C(C)(C)[C@@H]12.[Na+] (mixture of isomers) [Example 22, Sodium (5RS,6RS)-4,4-dimethyl-6-((1SR)-1-hydroxyethyl]-3-(pyrimidin-2-ylsulphinyl)-7-oxo-1-azabicyclo(3.2.0]hept-2-en-2-carboxylate]
P. rettgeri Wm16; Broth, P. rettgeri Wm16, read-out: MIC
  MIC: 25 µg/mL
S. aureus Oxford; Broth, S. aureus Oxford, read-out: MIC
  MIC: 0.8 µg/mL
S. typhimurium CT10; Broth, S. typhimurium CT10, read-out: MIC
  MIC: 12.5 µg/mL
P. mirabilis 977; Broth, P. mirabilis 977, read-out: MIC
  MIC: 25 µg/mL
S. aureus 1517; Broth, S. aureus 1517, read-out: MIC
  MIC: 25 µg/mL
E. coli ESS; Broth, E. coli ESS, read-out: MIC
  MIC: 1.6 µg/mL
C. freundii E8; Broth, C. freundii E8, read-out: MIC
  MIC: 25 µg/mL
B. subtilis A; Broth, B. subtilis A, read-out: MIC
  MIC: 0.8 µg/mL
K. aerogenes A; Broth, K. aerogenes A, read-out: MIC
  MIC: 50 µg/mL
P. morganii 1580; Broth, P. morganii 1580, read-out: MIC
  MIC: 25 µg/mL
S. aureus Russell; Broth, S. aureus Russell, read-out: MIC
  MIC: 1.6 µg/mL
S. sonnei MB11 1967; Broth, S. sonnei MB11 1967, read-out: MIC
  MIC: 50 µg/mL
P. vulgaris W091; Broth, P. vulgaris W091, read-out: MIC
  MIC: 6.2 µg/mL
E. coli 0111 [E8]
  MIC: 25 µg/mL
E. coli JT410 C4
  MIC: 25 µg/mL
E. coli JT39 [E96]
  MIC: 50 µg/mL
K. aeogenes BA 9J R+
  MIC: 25 µg/mL
Serratia marcescens US32
  MIC: 100 µg/mL
E. coli JT 2074
  MIC: 25 µg/mL
E. cloacae N1 [T753]
  MIC: 25 µg/mL

## CC(=O)N/C=C/SC1=C(C(=O)O)N2C(=O)[C@@H]([C@H](C)OS(=O)(=O)O)[C@H]2C1 [MM13902, reference compound]
[1]
  Relative Stability: 1.4
[2]
  Relative Stability: 1.1
